{"source": "a melting point compilation (Tetko et al.; mined from patent text by program, amines drawn as free bases though some values may be those of a salt)"}
{"units": {"melting point": "°C"}}
{"compound": "CCNc1cccnc1N1CCN(C(=O)c2ccc(C(=O)N(CC)CCO)cc2)CC1", "melting point": "106 to 108"}
{"compound": "Cc1cc(-c2nc3cc(F)cc(N4CCCC4)c3c(=O)[nH]2)cc(C)c1OCCN1CCCC1", "melting point": 207}
{"compound": "CC(=O)c1ccc(Oc2ccc(Cl)c3ccccc23)cc1", "melting point": "95 to 99"}
{"compound": "Cc1cccc(-c2nc3ccccn3c2-c2ccnc(-c3ccc(OC(F)(F)F)cc3)c2)n1", "melting point": 120}
{"compound": "CNS(=O)(=O)c1sccc1C(C)=O", "melting point": "101 to 103"}
{"compound": "O=C(O)c1ccc(Cl)c2c1OCCO2", "melting point": 195}
{"compound": "CCOC(=O)c1ccc(-n2ccnc2C)cc1", "melting point": "72 to 73"}
{"compound": "Cc1nc(-c2ccccc2)ncc1CBr", "melting point": "65 to 66"}
{"compound": "Cc1csc(N2N=C(c3ccc([N+](=O)[O-])cc3)c3cc4c(cc3CC2C)OCO4)n1", "note": "(centres undefined)", "melting point": "188 to 189"}
{"compound": "O=C1N=C2C=CC=CN2C1(Cc1ccccc1)Cc1ccc(F)cc1", "note": "(centres undefined)", "melting point": "> 300"}
{"compound": "COc1ccc(-c2c(Cl)nc(Cl)nc2-c2ccccc2)cc1", "melting point": "132 to 134"}
{"compound": "CCC(C)CNC(=O)c1ccc2c(c1)N(C(C)CN(C)CC)c1ccccc1S2", "note": "(mixture of isomers)", "melting point": 95}
{"compound": "O=C(C=Cc1ccccc1)c1ccc(OCc2ccccc2)cc1O", "melting point": "116 to 118"}
{"compound": "COCCOc1ccccc1-c1cc(Nc2cccc(S(C)(=O)=O)c2)ncn1", "melting point": "153 to 154"}
{"compound": "COC(=O)CC(C)C1CCC2C3CC=C4CC(OC(C)=O)CC(OC(C)=O)C4(C)C3CCC12C", "note": "(centres undefined)", "melting point": "123 to 124"}
{"compound": "Cc1ccc(-c2cccc(/C=C/C(=O)Nc3ccc(CN4CCN(Cc5ccc6c(c5)OCO6)CC4)cc3)c2)cc1", "melting point": "204 to 207"}
{"compound": "O=C1NCCNC1c1cn(Cc2ccccc2Cl)c2ccccc12", "note": "(centres undefined)", "melting point": 181}
{"compound": "COC(=O)C(O)=CC(=O)c1ncnc2c1ncn2Cc1ccccc1", "melting point": "166 to 167"}
{"compound": "O=C(Nc1ccccc1S(=O)(=O)N1CCCCC1)N[C@@H](Cc1ccc(Oc2nccc3cnccc23)cc1)C(=O)O", "melting point": 140}
{"compound": "CC(COc1ccc(Oc2ccccc2)cc1)=NO", "melting point": "59 to 61"}
{"compound": "N=C(NCc1ccccc1)NN=Cc1ccc(Cl)cc1Cl", "melting point": "139 to 141"}
{"compound": "O=C(CN1C(=O)C2(COc3cc4c(cc32)CCO4)c2c(Cl)cccc21)Nc1ccccc1F", "note": "(centres undefined)", "melting point": "243 to 245"}
{"compound": "Cc1cncn1CC(=O)CCc1ccc(Cl)cc1", "melting point": "227 to 228"}
{"compound": "O=C1CC(c2cccc(-n3ccnn3)c2)=Nc2ccc(-c3ccccc3F)cc2N1", "melting point": "209 to 212"}
{"compound": "N#CCCCSc1nccc(N)n1", "melting point": "99 to 100"}
{"compound": "COC(=O)c1cc(S(N)(=O)=O)c(F)cc1N", "melting point": "209 to 211"}
{"compound": "COc1cc2c(-c3cc4cc(Cl)cnc4[nH]3)cn(C)c2cc1OC", "melting point": 282}
{"compound": "C#CCn1c(=O)n(C(C)C)c2ccc(-c3ncc(C(F)(F)F)cc3Cl)cc21", "melting point": "109 to 111"}
{"compound": "COc1ccc(CN(C)CCc2ccc(NC(=O)c3cccc4c(=O)c5cccc(C)c5[nH]c34)c(C)c2)cc1OC", "melting point": "160 to 161"}
{"compound": "CCCCc1c(-c2cccnn2)ssc1=S", "melting point": 94}
{"compound": "C#CCOc1cc(NC(=O)C2NCC3CC32)c(F)cc1Cl", "note": "(centres undefined)", "melting point": "113 to 115"}
{"compound": "COc1ccc(C)cc1-c1cc2ccccc2[nH]1", "melting point": 119}
{"compound": "COC(=O)C(=O)Oc1cc(-n2c(=O)cc(C(F)(F)F)n(C)c2=O)c(F)cc1Cl", "melting point": "103 to 105"}
{"compound": "Cc1cc(Br)cnc1CCCCNc1ncc(Cc2ccn(Cc3ccccc3)c(=O)c2)c(=O)[nH]1", "melting point": "140 to 144"}
{"compound": "CC(C)(C)OC(=O)Nc1ccc(C#Cc2ccc(F)cc2)cc1NC(=O)CC(=O)c1cccc(-n2cncn2)c1", "melting point": "131 to 139"}
{"compound": "CC(C)n1nc(-c2sc(NC(=O)n3c4ccccc4c4ccccc43)nc2-c2ccccc2)ccc1=O", "melting point": "241 to 242"}
{"compound": "CC(=O)OC1CCc2c(C#N)cccc21", "note": "(centres undefined)", "melting point": 65}
{"compound": "COCOc1ccc(C(=O)O)c(OCc2ccc(Cl)cc2Cl)c1C", "melting point": 174}
{"compound": "CCCCCCCCCCCCCCc1ccc(S(=O)(=O)Nc2nncs2)cc1", "melting point": "116 to 117"}
